This is an account of results in article PMC12124432, “Antimicrobial Peptide‐Peptoid Macrocycles from the Polymyxin B2 Chemical Space” (Angewandte Chemie (International Ed. in English), 2025).

Each structure is given as a SMILES string. Bridge positions count the residues as written; N and C are the ends. Square brackets hold non-standard residues; d marks the D form. Peptide text beside a SMILES is read from it. * marks the point of attachment. N(3-phenylpropyl)Gly = O=C(O)CNCCCc1ccccc1; Gly(NCH2CH2Ph) = O=C(O)CNCCc1ccccc1; Gly(N-2-aminoethyl) = NCCNCC(=O)O; Gly(N(CH2)3NH2) = NCCCNCC(=O)O; Gly(N-cPent) = O=C(O)CNC1CCCC1; Heptanoyl = CCCCCCC(=O)*; Nphe = O=C(O)CNCc1ccccc1; Octanoyl = CCCCCCCC(=O)*; Dab = NCC[C@H](N)C(=O)O; NPrGly = CCCNCC(=O)O

Assay [1] can be described thus: Lipid vesicle (carboxyfluorescein) leakage assay. As to conditions: 10 µg mL^−1 compound, 10 mM Tris, 107 mM NaCl, pH 7.4, leakage observed after 220 s. How it is done:
Figure S4. Cytotoxicity of selected compounds against HK-2 cells. The cells were treated with the compound at the desired concentration for 24 h and the viability was determined with an Alamar blue assay. Data of three experiments performed in triplicates were pooled and represented as barplots.
10. Lipid Vesicle Leakage Assay
5(6)-carboxyfluorescein (CF) was purchased from Sigma Aldrich. Egg Yolk Phosphatidylcholine (EYPC), Egg Yolk Phosphatidylglycerol (EYPG) and a Mini-Extruder were purchased from Avanti Polar Lipids.
Vesicles preparation. Egg yolk PC or egg yolk PG thin lipid layers were prepared by evaporating a solution of 100 mg EYPC or EYPG in 4 mL MeOH/CHCl3 (1:1) on a rotary evaporator at room temperature and then dried in vacuo overnight. The resulting film was then hydrated with 2 mL CF buffer (50 mM CF, 10 mM TRIS, 10 mM NaCl, pH 7.4) for 30 min, subjected to freeze-thaw cycles (7×) and extrusion (15×) through a polycarbonate membrane (pore size 100 nm). Extra vesicular components were removed by gel filtration (Sephadex G-50) with 10 mM TRIS, 107 mM NaCl, pH 7.4 buffer. Final conditions: ca. 2.5 mM EYPC or EYPG; inside: 50 mM CF, 10 mM TRIS, 10 mM NaCl, pH 7.4 buffer; outside: 10 mM TRIS, […]
Vesicle leakage assay. EYPC or EYPG vesicle stock solutions (37.5 μL) were diluted to 3000 μL with a buffer (10 mM TRIS, 107 mM NaCl, pH 7.4) in a thermostated fluorescence cuvette (25 °C) and gently stirred (final lipid concentration ca. 10 μg/mL for both EYPG and EYPC).
The desired volume of peptide (1 or 20 mg/mL stock in MilliQ water) was added at t = 45 s to obtain final concentrations of 10 and 50 or 200 μg/mL, and CF efflux was monitored at λem 517 nm (λex 492 nm) as a function of time. Finally, 30 μL of 1.2% Triton X-100 was added to the cuvette (0.012% final concentration) at t = 240 s to reach the maximum intensity.
Fluorescence intensities were then normalized to the maximal emission intensity using I(t) = (It − I0)⁄(I∞ − I0) where I0 = It at peptide addition and I∞ = It at saturation of […]

Assay [2] can be described thus: Dansyl-polymyxin (DsPMB) displacement assay. It counts as binding, Pseudomonas aeruginosa. As to conditions: 37 °C, 2.5 µM DsPMB, LPS 3 μg/mL, emission 485 nm; mean ± SD, n = 3. Here is the method:
14. Dansyl-Polymyxin (DsPMB) Displacement Assay
Saturation determination. Dansyl-polymyxin (DsPMB) in water (1.5 mg/mL) and lyophilized lipopolysaccharides from P. aeruginosa were obtained from Merck. LPS were prepared as a 1 mg/mL stock solution in mQ water and stored at 4 °C. The fluorescence saturation of DsPMB with LPS was first determined, by titration (0.25 μM increments, up to 5 μM) of the DsPMB into a 3 μg/mL of LPS (10 mM Tris, 10 mM NaCl buffer, pH 7.4), at 37 °C. The fluorescence was recorded with a Jasco spectrofluorometer FP-8300, with the excitation at λex = 340 nm (5 nm slit width) and recorded from 420 to 650 nm. The fluorescence was recorded two minutes after each addition. Saturation was graphically determined, at a concentration of D sPMB ≈ 2.5 μM (λem = 485 nm). Each measurement was determined in triplicates.
Displacement assay. The displacement effect of the various peptides was determined by measuring the reduction of fluorescence intensity, at 37 °C. Initially, DsPMB (2.5 μM) was mixed with LPS (3 μg/mL) and let it react for 15 minutes before recording the fluorescence […]
intensity (at λem = 485 nm and λex = 340 nm). Then, the peptide was titrated (1 μM increments, up to 10 μM) into the DsPMB/LPS mixture, and the fluorescence was recorded two minutes after the compound addition. The decrease in fluorescence was interpreted as the displacement of DsPMB from the LPS due to competitive binding by the peptide.[12,13] Specific Fluorescence Enhancement
Figure S8. Fluorescence emission of dansyl-polymyxin (DsPMB) in presence of lipopolysaccharide (LPS) extracted from P. aeruginosa (3 µg/mL) in TRIS/NaCl buffer (10 mM, pH 7.4). The fluorophore was excited at 340 nm (5 nm slit width) and recorded from 420 to 650 nm. The data represent mean value from three measurement. Specific fluorescence represents the emission of DsPMB with the non-specific fluorescence (no LPS) deduced.

For `CCCCCCCC(=O)N(CCc1ccccc1)CC(=O)N[C@@H](CCCCN)C(=O)N[C@@H](CC(N)=O)C(=O)N[C@H]1CCNC(=O)[C@H](CCCCN)NC(=O)CN(CCCN)C(=O)[C@H](CCCCN)NC(=O)CN(CCC)C(=O)[C@H](CCCCN)NC1=O` [EB12] (Octanoyl-[Gly(NCH2CH2Ph)]KN[Dab]K[NPrGly]K[Gly(N(CH2)3NH2)]K; lactam 4-C), the “Membrane disruptive activity, fluorescein leakage from EYPG and EYPC vesicles” value (shortened to “Membrane disruptive activity”) in assay [1] is “low membrane disruptive activity”. Further, the “Binding to lipopolysaccharide (dansyl-PMB fluorescence displacement)” value (“Binding to lipopolysaccharide” below) in assay [2] was “to a similar extent as PMB2 itself”.

Take `CCCCCCC(=O)N[C@H](C(=O)N(CCN)CC(=O)N(CCCc1ccccc1)CC(=O)N[C@H]1CCNC(=O)[C@H](CCCCN)NC(=O)CN(CCCN)C(=O)[C@H](CCCCN)NC(=O)CNC(=O)[C@H](CCCCN)NC1=O)C(C)C` [EB13] (Heptanoyl-V[Gly(N-2-aminoethyl)][N(3-phenylpropyl)Gly][Dab]KGK[Gly(N(CH2)3NH2)]K; lactam 4-C): the “Membrane disruptive activity” value in assay [1] is “low membrane disruptive activity”. In addition, the “Binding to lipopolysaccharide” value in assay [2] is listed as “to a similar extent as PMB2 itself”.

Consider `CCCCCCCC(=O)N[C@@H](CCCCN)C(=O)N(CC(=O)N[C@@H](CCCCN)C(=O)N[C@H]1CCNC(=O)[C@H](CCCCN)NC(=O)CN(C2CCCC2)C(=O)CN(CCN)C(=O)[C@H](CCCCN)NC(=O)[C@H](CC(N)=O)NC1=O)Cc1ccccc1` [EB21] (Octanoyl-K[Nphe]K[Dab]NK[Gly(N-2-aminoethyl)][Gly(N-cPent)]K; lactam 4-C), for which, in assay [1], the “Membrane disruptive activity” value is “low membrane disruptive activity”. Also, in assay [2], the “Binding to lipopolysaccharide” value was “to a similar extent as PMB2 itself”.
